US7615361B2, “Toxicity screening methods” (Ceetox, Inc., priority 2006, dated 2009)
Read-outs that look alike come from different tables or passages of the source.

Key:
[1] = Intracellular ATP levels; type: cell-based; conditions: read-out: ATP TC50; for CC50 at 72 h: SK-MEL28, 72 HR, run #2
Procedure: Intracellular ATP Levels: Cellular Adenosine triphosphate (ATP) was determined with an assay based on a reaction between ATP+D-luciferin+oxygen catalyzed by luciferase to yield Oxyluciferin+AMP+PPi+CO2+light. The emitted light is proportional to the amount of ATP present. […] In addition, a unique cell lysis reagent inhibits endogenous ATPases and therefore stabilizes cellular ATP by preventing its degradation to ADP. ATP is present in all-living cells and declines rapidly upon cell death. In addition, this assay in combination with the MTT assay provides an indicator of mitochondrial activity and energy status of the cell.
Plates were analyzed immediately or stored at −20° C. until needed. On the day of analysis, the plates were thawed and calibration curve prepared with ATP in the same liquid matrix as samples. ATP was quantified by adding ATP substrate solution and then reading luminescence on a Packard Fusion Luminescence or equivalent plate reader.
Intracellular ATP Levels: ATP levels in treated cells could be determined by using the regression coefficients obtained from the linear regression analysis of the calibration curve. Thus, values could be expressed as pmoles ATP/million cells. Background corrected luminescence was used to determine percent change relative to controls by dividing treated values by control values and multiplying by 100.
Dosing solutions were prepared in complete culture medium.

[2] = test system: C32 cells; test: Intracellular total glutathione (GSH); conditions: C32, 24 HR
Procedure: (§1) Intracellular Glutathione (GSH) Levels: Intracellular glutathione levels were determined essentially as described by Griffith (1980) with modifications. At the end of the exposure period, the medium was removed from the cells and metaphosphoric acid (MPA) was added to each well. Plates were then shaken for 5 min at room temperature and stored at −20° C. until needed.
(§2) The sample plates were thawed just prior to analysis and centrifuged at >2000×g for at least 2 min. Sample aliquots were removed and transferred to a clean 96-well plate along with appropriate standard curve controls. Sample pH was neutralized just prior to analysis and each well received an aliquot of sodium phosphate reaction buffer containing EDTA, DTNB, NADPH, and glutathione reductase. The plates were mixed for 15-30 min at room temperature and glutathione content was determined calorimetrically with a Packard Fusion or equivalent reader at 415 nm.
(§3) Intracellular Glutathione (GSH) Levels: The assay is based on the concept that all GSH is oxidized to GSSG by DTNB reagent. Two molecules of GSH are required to make one molecule of GSSG. Total GSH was determined by reducing GSSG to 2GSH with glutathione reductase. A standard curve was prepared with oxidized glutathione (GSSG) over a range of concentrations. These concentrations are then converted to glutathione equivalents (GSX) essentially by multiplying the GSSG standard concentrations by 2. The amount of GSX expressed as pmoles/well was determined using the standard curve and regression analysis.
(§4) The test compound consisted of two parts mixed in a constant ratio of 5:1. The final test mixture consisted of Test mix 1 and Test mix 2, which were received as frozen solutions. The test mixture was tested in a ratio of 5:1 COMP A in five different cell types which included the following: SK-MEL28, human hepatocytes, HUVEC, C32, and NHEM cells. Cells were seeded into 96-well plates and cultured in medium containing 10% bovine serum. Following an equilibration period of 48 hr, the cells were treated with the test compound mix at concentrations of COMP A (μg/mL)=(250:50), (125:25), (25:12.5), (12.5:2.5), (2.5:1.25), (1.25:0.25), and (0.25:0.05) for 24 hr (overnight) at 37° C. in 5% CO2. […] Following an equilibration period of 4 hr, the cells were treated with the test compound mix at concentrations of COMP A (μg/mL)=(250:50), (125:25), (25:12.5), (12.5:2.5), (2.5:1.25), (1.25:0.25), and (0.25:0.05) for 24 hr (overnight) at 37° C. in 5% CO2.
(§5) Experimental Protocol: The test compounds were shipped on dry ice for testing. The compounds were stored frozen at −80° C. until needed. Dosing solutions were prepared in complete culture medium. SK-MEL28, human hepatocytes, HUVEC, C32, and NHEM cells were used as the test systems. Cells were seeded into 96-well plates and allowed to equilibrate for approximately 48 hr. Following the equilibration period the cells were exposed to the test compound mix at concentrations of COMP A (μg/mL)=(250:50), (125:25), (25:12.5), (12.5:2.5), (2.5:1.25), (1.25:0.25), and (0.25:0.05). Solubility was determined by Nephalometry techniques immediately after dosing and prior to harvesting the cells at 24 hr. Following the exposure period, the cells or their supernatant (culture medium) were analyzed for changes in cell proliferation, membrane leakage, mitochondrial function, oxidative stress, and apoptosis. The resultant exposure concentration response curves were graphed and analyzed for determining the concentration that produced a half maximal response or TC50.

[3] = test system: HUVEC; test: Intracellular total glutathione (GSH); conditions: HUVEC, 24 HR
Procedure: as §1, §2, §3, §4, §5

[4] = test system: human hepatocytes; test: Intracellular total glutathione (GSH); conditions: 24 HR
Procedure: as §1, §2, §3, §4, §5

Structure (SMILES) | CC50 at 24 h ([1]; human, HUVEC) [µM] | CC50 at 24 h ([1]; human, SK-MEL28 cells, SK-MEL28, 24 HR) [µM] | CC50 at 72 h ([1]; human, SK-MEL28 cells) [µM] | Percent Change in Total GSH [2] [%] | Percent Change in Total GSH [3] [%] | Percent Change in Total GSH [4] [%] | CC50 at 24 h ([1]; human hepatocytes) [µM]
CC[C@@]1(O)C(=O)OCc2c1cc1n(c2=O)Cc2cc3ccccc3nc2-1 [CAMPTOTHECIN, Camptothecin] | 40 | 293 | 0.1 | −41.1 | −85.8 | −69.9 | 
C=C(C)[C@H]1Cc2c(ccc3c2O[C@@H]2COc4cc(OC)c(OC)cc4[C@@H]2C3=O)O1 [ROTENONE, Rotenone] |  |  | 2 | 12.9 | 11.3 | 95.9 | 6
